Measurements as given in patent US5436260A, “Angiotensin II receptor antagonists” (Warner-Lambert Company, priority 1994, dated 1995).
Where a name gives a salt, the structure may show the parent alone.

Each compound was assayed on renal hypertensive rats (assay: blood pressure lowering in renal hypertensive rats (2-kidney, 1-clip Goldblatt model)). Conditions: single oral dose of 30 mg/kg, renal hypertensive rat.
Format: in vivo
Experimental: Finally, the compounds of Formula I were tested in vivo for blood pressure lowering effects in renal hypertensive rats (2-kidney, 1-clip Goldblatt model) according to the method described by S. Sen, et al, in Hypertension 1979;1:427-34 and in Clin. Soc. 1979;57:53-62.
Illustrative of the in vivo antihypertensive activity for compounds of Formula I or Ia is the data for Example 1a. This compound lowers blood pressure by ≥50 mm Hg and is efficacious for more than 24 hours with a single oral dose of 100 mg/kg in the renal hypertensive rat. Furthermore Example 73 lowers blood pressure by ≥30 mm Hg and is efficacious for more than 24 hours with a single oral dose of 30 mg/kg in the renal hypertensive rat.
With `CCCCc1ncc(/C=C2/C(=O)N(CCCC)C(=O)N2CCCC)n1Cc1ccc(C(=O)O)cc1` [Example 73, Z-4-[[2-butyl-5-[(1,3-dibutyl-2,5-dioxo-4-imidazolidinylidene)methyl]-1H-imidazol-1-yl]methyl]benzoic acid] the “efficacious for (duration)” value was “more than 24 hours” and the “lowers blood pressure by” value was at least 30 mm Hg.

Same assay, conditions: single oral dose of 100 mg/kg, renal hypertensive rat
With `CCCCc1ncc(/C=C2\C(=O)NC(=O)N2CCCC)n1Cc1ccc(C(=O)O)cc1` [Example 1a, (E)-4-[[2-Butyl-5-[(3-butyl-2,5-dioxo-4-imidazolidinylidene)methyl]-1H-imidazol-1-yl]methyl]benzoic acid] the “lowers blood pressure by” value was at least 50 mm Hg.

The compounds below were run against T1, AT1 receptor (Rattus norvegicus, UniProt P25095) (assay: [^3 H]angiotensin II binding to rat liver membranes (AT1 test)). Conditions: inhibition of [^3 H]angiotensin II binding.
T1 construct: rat liver membranes; from tissue; host or cells: rat liver membranes
T1 sequence (P25095 1-359): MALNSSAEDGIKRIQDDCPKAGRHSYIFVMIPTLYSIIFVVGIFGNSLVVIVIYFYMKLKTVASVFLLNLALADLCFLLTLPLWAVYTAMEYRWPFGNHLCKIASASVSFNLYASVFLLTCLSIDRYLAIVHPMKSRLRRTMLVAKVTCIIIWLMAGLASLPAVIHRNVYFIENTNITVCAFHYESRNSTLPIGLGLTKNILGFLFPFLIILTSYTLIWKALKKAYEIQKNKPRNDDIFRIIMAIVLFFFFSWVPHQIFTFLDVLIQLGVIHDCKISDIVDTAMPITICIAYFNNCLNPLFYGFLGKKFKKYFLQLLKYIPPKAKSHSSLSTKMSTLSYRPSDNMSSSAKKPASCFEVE
In short: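 Inhibition of [^3 H]angiotensin II binding to rat liver membranes, run by the Dudley et al. 1990 method.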
`CCCCc1ncc(/C=C2/C(=O)N(CCCC)C(=O)N2CCCC)n1Cc1ccc(C(=O)O)cc1` [Example 73, Z-4-[[2-butyl-5-[(1,3-dibutyl-2,5-dioxo-4-imidazolidinylidene)methyl]-1H-imidazol-1-yl]methyl]benzoic acid] was tested, and the IC50 was 1.3 nM. `CCCCc1ncc(/C=C2/C(=O)N(CCCC)C(=O)N2Cc2ccccc2Cl)n1Cc1ccc(C(=O)OC)cc1` [Example 61, Methyl Z-4-[[2-butyl-5-[[1-butyl-3-[(2-chlorophenyl)methyl]-2,5-dioxo-4-imidazolidinylidene]methyl]-1H-imidazol-1-yl-]methyl]benzoate monohydrochloride] gave an IC50 of 59.8 nM. `CCCCc1ncc(/C=C2\NC(=O)N(COC)C2=O)n1Cc1ccc(C(=O)OC)cc1` [Example 53] was tested, and the IC50 was over 1000 nM. `CCCCc1ncc(/C=C2/C(=O)N(CCCC)C(=O)N2Cc2ccc([N+](=O)[O-])cc2)n1Cc1ccc(C(=O)OC)cc1` [Example 38, mono hydrochloride] showed an IC50 of 16.9 nM. With `CCCCCCN1C(=O)/C(=C/c2cnc(CCCC)n2Cc2ccc(C(=O)OC)cc2)N(CCCC)C1=O` [Example 48, Methyl Z-4-[[2-butyl-5-[(3-butyl-1-hexyl-2,5-dioxo-4-imidazolidinylidene)methyl]-1H-imidazol-1-yl]methyl]benzoate monohydrochloride] the IC50 was 14.6 nM. `CCCCc1ncc(/C=C2\C(=O)NC(=O)N2Cc2cccs2)n1Cc1ccc(C(=O)OC)cc1` [Example 16a, (e)-4-[]2-Butyl-5-[[2,5-dioxo-3-((2-thienyl)methyl)-4-imidazolidinylidene[methyl]-1H-imidazole-1-yl]methyl]benzoic acid, methyl ester] gave an IC50 of 5.45 nM. `CCCCc1ncc(/C=C2\C(=O)N(CCCC)C(=O)N2Cc2csc(C)n2)n1Cc1ccc(C(=O)O)cc1` [Example 60, E-4-[[2-butyl-5-[[1-butyl-3-[(2-methyl-4-thiazolyl)methyl]-2,5-dioxo-4-imidazolidinylidene]methyl]-1H-imidazol-1-yl]methyl]benzoic acid] showed an IC50 of 2.63 nM. For `CCCCc1ncc(/C=C2\C(=O)NC(=O)N2Cc2cccs2)n1Cc1ccc(C(=O)O)cc1` [Example 6a], the IC50 was 2.97 nM. With `CCCCc1ncc(/C=C2\C(=O)NC(=O)N2c2ccccc2)n1Cc1ccc(C(=O)O)cc1` [Example 5, (E)-4-[[2-Butyl-5-[(2,5-dioxo-3-phenyl-4-imidazol-imidazolidinylidene)methyl]-1H-imidazole-1-yl]methyl]benzoic acid] the IC50 was 643 nM. In the case of `CCCCc1ncc(C(O)C2C(=O)NC(=O)N2CCCC)n1Cc1ccc(C(=O)OC)cc1` (stereo not shown) [Example 29, Methyl 4-[[2-butyl-5-[(3-butyl-2,5-dioxo-4-imidazolidinyl)hydroxymethyl]-1H-imidazol-1-yl]methyl]benzoate], the IC50 is reported as over 1000 nM. Work on `CCCCc1ncc(/C=C2/C(=O)NC(=O)N2Cc2cccs2)n1Cc1ccc(C2(C(=O)O)CCCC2)cc1` [Example 26b, Z-1-[4-[[2-butyl-5-[[2,5-dioxo-3-(2-thienylmethyl)-4-imidazolidinylidene]methyl]-1H-imidazol-1-yl]methyl]phenyl]cyclopentanecarboxylic acid] yielded an IC50 of 2.22 nM. With `CCCCc1ncc(/C=C2/C(=O)N(CCCC)C(=O)N2CC(=O)c2ccccc2)n1Cc1ccc(C(=O)OC)cc1` [Example 104, Methyl Z-4-[[2-butyl-5-[[1-butyl-2,5-dioxo-3-(2-oxo-2-phenylethyl)-4-imidazolidinylidene]methyl]-1H-imidazol-1-yl]methyl]benzoate monohydrochloride] the IC50 was over 1000 nM. `CCCCc1ncc(/C=C2\C(=O)NC(=O)N2Cc2ccc(OC)c(OC)c2)n1Cc1ccc(C(=O)O)cc1` [Example 21a] gave an IC50 of 111 nM. Work on `CCCCCCN1C(=O)/C(=C/c2cnc(CCCC)n2Cc2ccc(C(=O)OC)cc2)N(Cc2ccsc2)C1=O` [Example 49, Methyl Z-4-[[2-butyl-5-[[1-hexyl-2,5-dioxo-3-(3-thienylmethyl)-4-imidazolidinylidene]methyl]-1H-imidazol-1-yl]methyl]benzoate monohydrochloride] yielded an IC50 of 9.48 nM. With `CCCCc1ncc(/C=C2/C(=O)NC(=O)N2C)n1Cc1ccc(C(=O)O)cc1` [Example 3b, (Z)-4-[[2-Butyl-5-[(2,5-dioxo-3-methyl-4-imidazolidinylidene)methyl]-1H-imidazol-1-yl]methyl]benzoic acid] the IC50 was 83.8 nM. `CCCCc1ncc(/C=C2/C(=O)N(CCCC)C(=O)N2Cc2nccn2Cc2ccccc2)n1Cc1ccc(C(=O)OC)cc1` [Example 99] was tested, and the IC50 was 135 nM.
